Assay results: patent publication US20220088204A1, “ANTICANCER DRUGS AND METHODS OF MAKING AND USING SAME” (YALE UNIVERSITY, priority 2019, published 2022)
“Also recorded” adds a separate entry of the source.

How the values were obtained:
[1] = cited from earlier work
[2] = test system: MDA-MB-231 breast cancer cells; assay: pH-dependent cell growth inhibition, CellTiter-Glo; type: cell-based, Human; details: 6 hours treatment at pH 7.4 vs pH 6.2, 72 hours growth
Method: Cells treated for 6 hours at pH 7.4 (normal physiological pH, X traces) or pH 6.2 (acidic solid tumor pH, Y traces) were subsequently allowed to grow in normal growth medium for 72 hours, then cell viability was evaluated using the CellTiter-Glo assay kit (Promega). Normalized percent cell growth inhibition is plotted on the left side of each panel and IC50 values reported at each pH from non-linear regression analysis.
(§1) In order to evaluate pH-dependent activity, treatments are performed at atypical cell culture conditions. […] Several cell lines have been evaluated using this method and for each, cell seeding density and treatment duration is independently experimentally determined. Each experiment is normalized to sham and complete activity controls for each pH condition.
Human MDA-MB-231 breast cancer cells seeded at low density on tissue culture treated 384-well plates, allowed to adhere and grow in serum-supplemented growth medium for 24 hours, then treated under pH-controlled conditions for 6 hours, and finally washed and grown in fresh growth media for 72 hours were assessed for cell survival using the CellTiter-Glo assay system (Promega) (FIG. 6).

HeLa cells = assay: pH-dependent cell uptake by flow cytometry; type: cell-based; details: HeLa cells in suspension, 5 μM, 1 hour, pH 7.4 vs pH 6.5
Text: FIGS. 5A-5B depict representative flow cytometry traces of pH-dependent cell treatments. […] Normalized cell counts (Y-axes) are plotted vs. doxorubicin fluorescence intensity per cell (X-axes).

[3] = Reductive activation / drug release in 5 mM GSH (simulated cytosol), LCMS; type: in vitro ADME; details: PBS containing 5 mM GSH, PBS pH 7.4, 5 mM GSH, 37° C., read-out: t1/2 of reduction of the disulfide
Method: In certain embodiments, the prodrug releases the active form of the drug once inside a cancer cell. Once inside the cell, drug release can be triggered by reduction of the disulfide bond in the linker. To evaluate the reductive activation of drug release, 50 μM YU241528 in a solution of PBS, pH 7.4, containing 5 mM GSH (a typical intracellular concentration of the predominant biological reducing agent) was incubated at 37° C. Aliquots were taken at regular intervals and analyzed by LCMS.

[4] = Blood levels after tail vein injection; type: in vivo, adult female balb/c mice
Method: Given that the drug's distribution and clearance can be expected to be substantially complete by about 6 hours after administration, in certain embodiments the peak intracellular dose is achieved long before this process might interfere to a significant degree, even assuming the altered metabolite is indeed compromised in its activity. […] In certain embodiments, the serum stability of YU241528 allows for effective therapy. […] In certain embodiments, the prodrug undergoes a different elimination path, as hepatobiliary elimination of weakly-ionic organic substances is sensitive to charge, size, and lipophilicity.

[5] = pKA of the ionizable group; type: physicochemical; details: read-out: acidic pKA of the carboxyl group
Text: The Henderson-Hasselbalch equation allows for calculating the neutral fraction of an ionizable drug at healthy tissue vs. tumor extracellular pH, and thus predicting the associated cell-permeable fractions. […] The carboxyl group of YU241528 has an acidic pKA of ˜4.4, so the predicted membrane permeable fraction is ˜8-fold less at a pH of 7.4 than at 6.5.

[6] = Serum stability of prodrug in 20% mouse serum (LCMS, 490 nm); type: in vitro ADME; details: 37° C.
Method: FIG. 4A depicts liquid chromatography data showing the stability of YU241528 in serum.
The prodrug strategies of this invention are thought to impart their benefits during the distribution and cell uptake steps of anticancer therapy. In certain embodiments, a prodrug is stable in the blood for a period sufficient to allow for cell uptake and systemic clearance. To test this, 50 μM YU241528 in a solution of PBS, pH 7.4, containing 20% mouse serum was incubated at 37° C. At regular intervals, aliquots were taken and mixed with 2 volumes of ethanol to precipitate serum proteins, then centrifuged. Supernatants were analyzed by LCMS. […] The predominant peak was identified as YU241528 by mass spectrometry.

[7] = Body weight of treated tumor-bearing mice; type: in vivo, Balb/c mice; details: IV once daily for 5 days, mice with EMT-6 flank tumors
Text: FIG. 7 depicts representative in vivo study on the efficacy and toxicity of compounds of the invention. […] Mean tumor volume and mean body weight graphs are shown for groups of 10 tumor-bearing mice.

[8] = test system: PEO1 ovarian cancer cells; assay: pH-dependent cell growth inhibition, transient treatment; type: cell-based; details: pH 7.4 vs pH 6.2
Method: FIG. 9 depicts pH-dependent cell growth inhibition of PEO1 ovarian cancer cells in culture, treated transiently with various prodrugs of the invention, as described above.
FIG. 10 depicts pH-dependent cell growth inhibition of PEO1 ovarian cancer cells in culture, treated transiently with an anticancer kinase inhibitor drug, Osimertinib, or a compound of the invention, based on an active core of that drug, YU253673.
as §1
Similar results have been obtained from pH-dependent cell growth inhibition assays with other classes of Drug using the prodrug approach.

SMILES: COc1cccc2c1C(=O)c1c(O)c3c(c(O)c1C2=O)C[C@@](O)(C(=O)CO)C[C@@H]3O[C@H]1C[C@H](N)[C@H](O)[C@H](C)O1 [doxorubicin, reference compound]
- basic pKA of the amine group [1]: ~8
- pH-dependent bias of cell growth inhibition [2]: greater growth inhibition at basic healthy pH
- pH preference of cell uptake (HeLa cells): greater uptake into cells at normal physiologic pH 7.4 than into cells at cancerous pH 6.5

SMILES: COc1cccc2c1C(=O)c1c(O)c3c(c(O)c1C2=O)C[C@@](O)(C(=O)CO)C[C@@H]3O[C@H]1C[C@H](NC(=O)OCCSSCc2ccc(C(=O)O)cc2)[C@H](O)[C@H](C)O1 [YU241528]
- half-life at 50 μM [3]: ~2.7 min
- level in the blood at 6 hours post injection ([4]; 6 hours): detectable levels
- level in the blood at 24 hours post injection ([4]; 24 hours): undetectable
- half-life ([4]; female, balb/c, mouse, blood, intravenous, read-out: non-compartmental half-life in blood (converted)): ~60 min
- pKa [5]: ~4.4
- release of free doxorubicin in serum ([6]; 50 μM, 20% mouse serum, over 6 hours of incubation): no active doxorubicin is released; also recorded: no free doxorubicin was detected
- half-life at 50 μM ([6]; mouse, 20% mouse serum in PBS, pH 7.4, 50 μM, PBS pH 7.4, 20% mouse serum, read-out: t1/2 of interaction with serum): > 360 min
- pH preference of cell uptake (HeLa cells): preferentially taken up by cells at cancerous pH 6.5 versus cells at normal pH 7.4

SMILES: COc1cccc2c1C(=O)c1c(O)c3c(c(O)c1C2=O)C[C@@](O)(C(=O)CO)C[C@@H]3O[C@H]1C[C@H](NC(=O)OCCSSCCCc2c(F)c(F)c(O)c(F)c2F)[C@H](O)[C@H](C)O1 [YU244206]
- weight loss (mean body weight) compared to sham treated controls [7]: no detectable weight loss
- pH-dependent bias of cell growth inhibition [2]: greater growth inhibition at acidic tumor pH

SMILES: C=CC(=O)Nc1cc(Nc2nccc(-c3cn(C)c4ccccc34)n2)c(OC)cc1N(C)CCN(C)C [Osimertinib]
- pH-dependent bias of cell growth inhibition [8]: slightly lower IC50 value at healthy pH 7.4

SMILES: COc1cccc2c1C(=O)c1c(O)c3c(c(O)c1C2=O)C[C@@](O)(C(=O)CO)C[C@@H]3O[C@H]1C[C@H](NC(=O)OCCSSCCCCCCCC(=O)O)[C@H](O)[C@H](C)O1 [YU241531]
- weight loss (mean body weight) compared to sham treated controls [7]: no detectable weight loss
- pH-dependent bias of cell growth inhibition [2]: greater growth inhibition at acidic tumor pH
